Values after ≈ are worked out from the molar mass of the structure shown. Counter-ions that a name gives are not always drawn. Like-named read-outs stand apart in the source and are kept apart here.
What was measured:
S. aureus F-3095 = test: Susceptibility test 1: MIC by micro-dilution method; type: cell-based; settings: Staphylococcus aureus
Description: (§1) Test substances were initially dissolved in dimethylsulfoxide. Antibacterial activities (MICs) of the same compounds were determined by the micro-dilution method as recommended by the Japanese Society of Chemotherapy.
(§2) The bacteria cultured on Mueller-Hinton agar (MHA) plates at 35° C. overnight were suspended in sterile physiological saline in a concentration that was equivalent to 0.5 McFarland. The bacterial inoculum was prepared by 10-fold dilution of this suspension. Approximately 0.005 mL of the bacterial inoculum was inoculated into Cation-adjusted Mueller-Hinton broth (CAMHB, 100 μL/well) containing the test substance and was incubated at 35° C. overnight. The lowest concentration of the test substance at which no bacterial growth was macroscopically observed was determined as the MIC.

S. aureus FDA209P = test: as above; type: cell-based; settings: Staphylococcus aureus, read-out: MIC (μg/mL) S. aureus FDA209P
Description: as §1, §2

Cytotoxicity test (XTT) = type: cell-based; settings: African green monkey, vero cells, 3 days incubation, absorbance 450 nm, read-out: CC50 (concentration when cell proliferation was inhibited by 50%)
Description: Each test substance was dissolved in dimethyl sulfoxide and was prepared to each concentration with E-MEM containing 10% FBS, and then 0.1 mL of this solution was dispensed into each well of a 96-well microplate. A vero cell suspension containing 3×10^4 cells/mL was prepared with E-MEM containing 10% FBS, and 0.1 mL of the suspension was inoculated to each well. After incubation in 5% CO2 at 37° C. for 3 days, 50 μL of E-MEM containing 1 mg/mL of 2,3-bis-(2-methoxy-4-nitro-5-sulfophenyl)-5-[(phenylamino)carbonyl]-2H-tetrazolium, inner salt, monosodium salt (XTT) and 25 μM of phenazine methosulfate (PMS) was added to each well. After about 2 hours, the absorbance at 450 nm was measured with a microplate reader.
The absorbance ratio of each well supplied with the test substance and the control not containing the test substance was calculated, and the concentration of each compound when cell proliferation was inhibited by 50% (CC50; μg/mL) was calculated.

[1] = test system: Staphylococcus aureus (S. aureus Smith); test: S. aureus infection experiment in mice; type: in vivo; settings: ICR mice, five per group; intraperitoneal infection; 3 mg/kg subcutaneously once, 1 hour after infection
Description: ICR mice (male, SPF grade, 4-week old, five mice per group) were used. A bacterial inoculum was prepared by suspending Staphylococcus aureus (S. aureus
Smith), which was cultured on a Mueller-Hinton agar plate at 37° C. overnight, in sterile physiological saline, preparing a bacterial solution of about 4×10^8 CFU/mL, and diluting the solution 10-fold in 5.6% mucin-phosphate buffer. ICR mice were intraperitoneally administered with the bacterial inoculum (approximately 2×10^7 CFU/mouse) to induce infection. Test substances were dissolved in 10% hydroxypropyl-β-cyclodextrin and 0.05 mol/L hydrochloric acid. […] The number of surviving mice was recorded on 5 days after the infection.

[2] = F3095, read-out: MIC (μg/mL) S. aureus F-3095
[3] = F3095, F-3095 (MDRSA), CAMHB, 35° C. overnight, lowest concentration with no macroscopic growth, read-out: MIC (μg/mL) S. aureus F-3095
[4] = CAMHB, 35° C. overnight, lowest concentration with no macroscopic growth

SMILES	MIC (S. aureus F-3095; [2])	MIC (S. aureus FDA209P)	CC50 at 3 days (Cytotoxicity test (XTT))	MIC (S. aureus F-3095; [3])	MIC (S. aureus FDA209P; [4])	number of surviving mice on 5 days after the infection [1]
COc1cnc2ccc(=O)n(CCN3CCC(NCc4cc5c(cn4)OCCO5)[C@H](O)C3)c2c1 (stereo in doubt) [Example 95, 1-(2-((3R,4R)-4-((2,3-dihydro(1,4)dioxino(2,3-c)pyridin-7-ylmethyl)amino)-3-hydroxypiperidin-1-yl)ethyl)-7-methoxy-1,5-naphthyridin-2(1H)-one]	0.0625 µg/mL (≈ 0.134 µM)	0.0313 µg/mL (≈ 0.0669 µM)	≥ 51.2 µg/mL			
Cc1ccc(CNC2CCN(CCn3c(=O)ccc4ccncc43)CC2)cc1F [Example 8, 1-(2-(4-((3-fluoro-4-methylbenzyl)amino)piperidin-1-yl)ethyl)-1,7-naphthyridin-2(1H)-one hydrochloride]	0.0313 µg/mL	0.0313 µg/mL	≥ 51.2 µg/mL			
COc1ccc2ncc(=O)n(CCN3CCC(NCc4cc5c(cn4)OCCO5)CC3)c2n1 [Example 10, 4-(2-(4-((2,3-dihydro(1,4)dioxino(2,3-c)pyridin-7-ylmethyl)amino)piperidin-1-yl)ethyl)-6-methoxypyrido(2,3-b)pyrazin-3(4H)-one hydrochloride]	0.0156 µg/mL	0.0156 µg/mL	≥ 51.2 µg/mL			
O=C1CSc2cc(Cl)c(CNC3CCN(CCn4c(=O)ccc5ccncc54)CC3)nc2N1 [Example 30, 7-chloro-6-(((1-(2-(2-oxo-1,7-naphthyridin-1(2H)-yl)ethyl)piperidin-4-yl)amino)methyl)-2H-pyrido(3,2-b)(1,4)thiazin-3(4H)-one]			≥ 51.2 µg/mL	0.0313 µg/mL (≈ 0.0645 µM)	0.0313 µg/mL (≈ 0.0645 µM)	
O=C1CSc2ccc(CNC3CCN(CCn4c(=O)ccc5ccncc54)CC3)nc2N1 [Example 33, 6-(((1-(2-(2-oxo-1,7-naphthyridin-1(2H)-yl)ethyl)piperidin-4-yl)amino)methyl)-2H-pyrido(3,2-b)(1,4)thiazin-3(4H)-one]			≥ 51.2 µg/mL	0.0313 µg/mL (≈ 0.0695 µM)	0.0313 µg/mL (≈ 0.0695 µM)	
O=c1ccc2ccncc2n1CCN1CCC(NCc2cc(-c3cccs3)on2)CC1 [Example 35, 1-(2-(4-(((5-(2-thienyl)isoxazol-3-yl)methyl)amino)piperidin-1-yl)ethyl)-1,7-naphthyridin-2(1H)-one hydrochloride]	0.0313 µg/mL	0.0313 µg/mL	≥ 51.2 µg/mL			
COc1ccc2ncc(=O)n(CCN3CCC(NCc4ccc5c(n4)NC(=O)CS5)CC3)c2n1 [Example 55, 6-(((1-(2-(6-methoxy-3-oxopyrido(2,3-b)pyrazin-4(3H)-yl)ethyl)piperidin-4-yl)amino)methyl)-2H-pyrido(3,2-b)(1,4)thiazin-3(4H)-one]			≥ 51.2 µg/mL	0.0078 µg/mL (≈ 0.0162 µM)	0.0039 µg/mL (≈ 0.0081 µM)	
COc1cnc2ncc(=O)n(CCN3CCC(NCc4cc5c(cn4)OCCO5)CC3)c2c1 [Example 68, 1-(2-(4-((2,3-dihydro(1,4)dioxino(2,3-c)pyridin-7-ylmethyl)amino)piperidin-1-yl)ethyl)-7-methoxypyrido(2,3-b)pyrazin-2(1H)-one hydrochloride]			≥ 51.2 µg/mL			all mice
COc1cnc2ccc(=O)n(CCN3CCC(NCc4ccc5c(n4)NC(=O)CO5)CC3)c2c1 [Example 79, 1-(2-(4-((3-oxo-3,4-dihydro-2H-pyrido(3,2-b)(1,4)oxazin-6-yl)methylamino)piperidin-1-yl)ethyl)-7-methoxy-1,5-naphthyridin-2(1H)-one hydrochloride]	0.0156 µg/mL	0.0078 µg/mL	≥ 51.2 µg/mL			
COc1cnc2ccc(=O)n(CCN3CCC(NCc4cnc5c(c4)OCCO5)CC3)c2c1 [Example 80, 1-(2-(4-((2,3-dihydro(1,4)dioxino(2,3-b)pyridin-7-yl)methylamino)piperidin-1-yl)ethyl)-7-methoxy-1,5-naphthyridin-2(1H)-one hydrochloride]	0.0156 µg/mL	0.0078 µg/mL	≥ 51.2 µg/mL			
COc1cnc2ccc(=O)n(CCN3CCC(NCc4ccc5c(n4)NC(=O)CS5)CC3)c2c1 [Example 90, 6-(((1-(2-(7-methoxy-2-oxo-1,5-naphthyridin-1(2H)-yl)ethyl)piperidin-4-yl)amino)methyl)-2H-pyrido(3,2-b)(1,4)thiazin-3(4H)-one]			≥ 51.2 µg/mL	0.0313 µg/mL (≈ 0.0651 µM)	0.0313 µg/mL (≈ 0.0651 µM)	
COc1cnc2ccc(=O)n(CCN3CCC(NCc4cnc(C)c(F)c4)CC3)c2c1 [Example 93, 1-(2-(4-(((5-fluoro-6-methylpyridin-3-yl)methyl)amino)piperidin-1-yl)ethyl)-7-methoxy-1,5-naphthyridin-2(1H)-one]			≥ 51.2 µg/mL	0.0313 µg/mL (≈ 0.0736 µM)	0.0625 µg/mL (≈ 0.147 µM)	all mice
COc1cnc2ccc(=O)n(CCN3CCC(NCc4cnc(C)c(F)c4)CC3)c2n1 [Example 96, 5-(2-(4-(((5-fluoro-6-methylpyridin-3-yl)methyl)amino)piperidin-1-yl)ethyl)-3-methoxypyrido(2,3-b)pyrazin-6(5H)-one]			≥ 51.2 µg/mL	0.0625 µg/mL (≈ 0.147 µM)	0.0625 µg/mL (≈ 0.147 µM)	
O=c1ccc2ncc(F)cc2n1CCN1CCC(NCc2cc3c(cn2)OCCC3)CC1 [Example 103, 1-(2-(4-((3,4-dihydro-2H-pyrano(2,3-c)pyridin-6-ylmethyl)amino)piperidin-1-yl)ethyl)-7-fluoro-1,5-naphthyridin-2(1H)-one hydrochloride]	0.0625 µg/mL	0.0625 µg/mL	≥ 51.2 µg/mL			all mice
COc1cnc2ccc(=O)n(CCC3(O)CCC(NCc4cc5c(cn4)OCCO5)CC3)c2n1 (stereo not drawn) [Example 119B, 5-(2-(4-((2,3-dihydro(1,4)dioxino(2,3-c)pyridin-7-ylmethyl)amino)-1-hydroxycyclohexyl)ethyl)-3-methoxypyrido(2,3-b)pyrazin-6(5H)-one]				0.0625 µg/mL (≈ 0.134 µM)	0.0625 µg/mL (≈ 0.134 µM)	all mice
COc1cnc2ccc(=O)n(CCN3CCC(NCc4cc(-c5ccco5)on4)CC3)c2c1 [Example 140, 1-(2-(4-(((5-(2-furyl)isoxazol-3-yl)methyl)amino)piperidin-1-yl)ethyl)-7-methoxy-1,5-naphthyridin-2(1H)-one]				0.0156 µg/mL (≈ 0.0347 µM)	0.0156 µg/mL (≈ 0.0347 µM)	all mice
COc1cnc2c(C)cc(=O)n(CCN3CCC(NCc4cc5c(cn4)OCCO5)CC3)c2c1 [Example 149, 1-(2-(4-((2,3-dihydro(1,4)dioxino(2,3-c)pyridin-7-ylmethyl)amino)piperidin-1-yl)ethyl)-7-methoxy-4-methyl-1,5-naphthyridin-2(1H)-one hydrochloride]	0.0313 µg/mL	0.0313 µg/mL				all mice
O=c1ccc2ncc(OC(F)F)cc2n1CCN1CCC(NCc2cc3c(cn2)OCCO3)CC1 [Example 151, 7-(difluoromethoxy)-1-(2-(4-((2,3-dihydro(1,4)dioxino(2,3-c)pyridin-7-ylmethyl)amino)piperidin-1-yl)ethyl)-1,5-naphthyridin-2(1H)-one hydrochloride]	0.125 µg/mL	0.0313 µg/mL				all mice
O=c1ccc2ncc(F)cc2n1CCN1CCC(NCc2cc3c(cn2)CCCO3)CC1 [Example 162, 1-(2-(4-((3,4-dihydro-2H-pyrano(3,2-c)pyridin-7-ylmethyl)amino)piperidin-1-yl)ethyl)-7-fluoro-1,5-naphthyridin-2(1H)-one hydrochloride]	0.0625 µg/mL	0.0313 µg/mL				

Reference: patent publication US8367831B2, “Heterocyclic compound or salt thereof and intermediate thereof” (priority 2006, dated 2013)
